Measured values: patent publication US20140335186A1, “METHODS AND COMPOSITIONS FOR ENHANCING CD4+ REGULATORY T CELLS” (Selecta Biosciences, Inc., priority 2013, published 2014)

Test system: CD4+ OTII cells (CD25+Fox3p+ regulatory T cell phenotype)
Assay: Induction of CD4+ regulatory T cells: CD4+ OTII cells transferred into SJL mice, flow cytometry of popliteal lymph nodes
Assay type: in vivo, mouse
Settings: s.c. hind limbs on days 1 and 5, popliteal lymph nodes on day 10
From the text: In order to monitor the determine the effect of immunosuppressant attached to synthetic nanocarriers on the development of CD4+ regulatory T cells, CD4+ T cells were purified from the transgenic mouse strain OTII using negative selection by magnetic-activated cell sorting (MACS). OTII mice express a T cell receptor specific for the chicken ovalbumin peptide OVA323-339. Following isolation, 4×10^6 CD4+ OTII cells were transferred into SJL mice congenically expressing the pan-leukocyte marker CD45.1 (Ptprc^a) (SJL-Prprc^a/BoyAiTac).
On day 10, 5 days following the second administration of the indicated treatment, the animlas were sacrified and the popliteal lymph nodes that drain the site of injection were harvested to analyze developmental status and quantify the CD4+ OTII cells that had been transferred into the SJL mice by flow cytometry.

“fOPII.323: free chicken ovalbumin peptide OVA323-339 (KISQAVHAAHAEINEAG; UniProt P01012 323-339, looked up, fragment)” was tested, and the “proportion of transferred OTII cells with regulatory T cell phenotype (CD25+Fox3p+), FIG. 1” value was “detectable but not statisitically significant increase”.
